Test results taken from PubChem BioAssay (NCI).
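Exposure lasted 48 hours, with cells grown in 96-well plates and compounds tested at five concentrations. GI50 marks 50% less growth. Definition used: TGI = concentration required for complete inhibition of growth.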

Legend:
Test in all cases: inhibition of tumour cell growth, NCI panel, 48 h; in the data active means GI50 below about 0.43 µM; inactive means the rest
K-562 leukemia = test system: K-562 leukemia
TK-10 renal = test system: TK-10 renal
CCRF-CEM leukemia = test system: CCRF-CEM leukemia
HOP-62 NSCLC = test system: HOP-62 NSCLC
786-0 renal = test system: 786-0 renal
OVCAR-5 ovarian = test system: OVCAR-5 ovarian
NCI-H460 lung = test system: NCI-H460 lung
HCC-2998 colon = test system: HCC-2998 colon
SK-OV-3 ovarian = test system: SK-OV-3 ovarian
OVCAR-4 ovarian = test system: OVCAR-4 ovarian
HCT-15 colon = test system: HCT-15 colon
SR leukemia = test system: SR leukemia
NCI-H23 lung = test system: NCI-H23 lung
NCI/ADR-RES ovarian = test system: NCI/ADR-RES ovarian
MCF7 breast = test system: MCF7 breast
HT29 colon = test system: HT29 colon
MDA-MB-231 breast = test system: MDA-MB-231 breast
UACC-62 melanoma = test system: UACC-62 melanoma
CAKI-1 renal = test system: CAKI-1 renal
PC-3 prostate = test system: PC-3 prostate
RPMI-8226 leukemia = test system: RPMI-8226 leukemia
COLO 205 colon = test system: COLO 205 colon
HOP-92 NSCLC = test system: HOP-92 NSCLC
T-47D breast = test system: T-47D breast
UACC-257 melanoma = test system: UACC-257 melanoma
NCI-H226 lung = test system: NCI-H226 lung
SK-MEL-5 melanoma = test system: SK-MEL-5 melanoma
KM12 colon = test system: KM12 colon
ACHN renal = test system: ACHN renal
SN12C renal = test system: SN12C renal
SK-MEL-28 melanoma = test system: SK-MEL-28 melanoma
UO-31 renal = test system: UO-31 renal
HL-60(TB) leukemia = test system: HL-60(TB) leukemia
SW-620 colon = test system: SW-620 colon
A549 NSCLC = test system: A549 NSCLC
DU-145 prostate = test system: DU-145 prostate
MDA-MB-435 = test system: MDA-MB-435
HCT-116 colon = test system: HCT-116 colon
U251 CNS = test system: U251 CNS
EKVX NSCLC = test system: EKVX NSCLC
OVCAR-3 ovarian = test system: OVCAR-3 ovarian
RXF 393 renal = test system: RXF 393 renal
SNB-75 CNS = test system: SNB-75 CNS
MOLT-4 leukemia = test system: MOLT-4 leukemia
OVCAR-8 ovarian = test system: OVCAR-8 ovarian
BT-549 breast = test system: BT-549 breast
M14 melanoma = test system: M14 melanoma
HS 578T breast = test system: HS 578T breast
SF-539 CNS = test system: SF-539 CNS
SF-268 CNS = test system: SF-268 CNS
SK-MEL-2 melanoma = test system: SK-MEL-2 melanoma
IGROV1 ovarian = test system: IGROV1 ovarian
SF-295 CNS = test system: SF-295 CNS
SNB-19 CNS = test system: SNB-19 CNS
NCI-H522 lung = test system: NCI-H522 lung
MALME-3M melanoma = test system: MALME-3M melanoma
LOX IMVI melanoma = test system: LOX IMVI melanoma
A498 renal = test system: A498 renal

O=C(CC(=O)N1N=C(N(c2ccccc2)c2ccccc2)CC1c1ccccc1)Nc1ccc(Cl)cc1 (stereo not given)
> 100 µM: TGI (K-562 leukemia) | TGI (TK-10 renal) | TGI (CCRF-CEM leukemia) | TGI (HOP-62 NSCLC) | TGI (786-0 renal) | TGI (OVCAR-5 ovarian) | TGI (NCI-H460 lung) | TGI (HCC-2998 colon) | TGI (SK-OV-3 ovarian) | TGI (OVCAR-4 ovarian) | TGI (HCT-15 colon) | TGI (SR leukemia) | TGI (NCI-H23 lung) | TGI (NCI/ADR-RES ovarian) | TGI (MCF7 breast) | TGI (HT29 colon) | TGI (MDA-MB-231 breast) | TGI (UACC-62 melanoma) | TGI (CAKI-1 renal) | TGI (PC-3 prostate) | TGI (RPMI-8226 leukemia) | TGI (COLO 205 colon) | TGI (HOP-92 NSCLC) | TGI (T-47D breast) | TGI (UACC-257 melanoma) | TGI (NCI-H226 lung) | TGI (SK-MEL-5 melanoma) | TGI (KM12 colon) | TGI (ACHN renal) | TGI (SN12C renal) | TGI (SK-MEL-28 melanoma) | TGI (UO-31 renal) | TGI (HL-60(TB) leukemia) | TGI (SW-620 colon) | TGI (A549 NSCLC) | TGI (DU-145 prostate) | TGI (MDA-MB-435) | TGI (HCT-116 colon) | TGI (U251 CNS) | TGI (EKVX NSCLC) | TGI (OVCAR-3 ovarian) | TGI (RXF 393 renal) | TGI (SNB-75 CNS) | TGI (MOLT-4 leukemia) | TGI (OVCAR-8 ovarian) | TGI (BT-549 breast) | TGI (M14 melanoma) | TGI (HS 578T breast) | TGI (SF-539 CNS) | TGI (SF-268 CNS) | TGI (SK-MEL-2 melanoma) | TGI (IGROV1 ovarian) | TGI (SF-295 CNS) | TGI (SNB-19 CNS) | TGI (NCI-H522 lung)

Cn1c2ccccc2c2c3[nH][nH]c(=O)c3c3c4ccccc4[nH]c3c21
50.8 µM: TGI (HT29 colon)
5.78 µM: TGI (SK-MEL-2 melanoma)
3.12 µM: TGI (SF-539 CNS)
7.8 µM: TGI (OVCAR-3 ovarian)
22.6 µM: TGI (NCI-H226 lung)
inactive: GI50 (K-562 leukemia) 3.3 µM | GI50 (TK-10 renal) 4.74 µM | GI50 (CCRF-CEM leukemia) 2.89 µM | GI50 (HOP-62 NSCLC) 3.11 µM | GI50 (786-0 renal) 3.06 µM | GI50 (OVCAR-5 ovarian) 4.21 µM | GI50 (NCI-H460 lung) 1.57 µM | GI50 (HCC-2998 colon) 2.74 µM | GI50 (SK-OV-3 ovarian) 3.46 µM | GI50 (OVCAR-4 ovarian) 2.6 µM | GI50 (HCT-15 colon) 2.47 µM | GI50 (NCI-H23 lung) 1.85 µM | GI50 (MALME-3M melanoma) 5.24 µM | GI50 (NCI/ADR-RES ovarian) 4.02 µM | GI50 (MCF7 breast) 1.63 µM | GI50 (HT29 colon) 3.13 µM | GI50 (MDA-MB-231 breast) 1.39 µM | GI50 (UACC-62 melanoma) 2.07 µM | GI50 (CAKI-1 renal) 2.22 µM | GI50 (PC-3 prostate) 2.03 µM | GI50 (RPMI-8226 leukemia) 2.96 µM | GI50 (COLO 205 colon) 4.74 µM | GI50 (HOP-92 NSCLC) 3.73 µM | GI50 (T-47D breast) 2.05 µM | GI50 (NCI-H226 lung) 2.34 µM | GI50 (LOX IMVI melanoma) 1.09 µM | GI50 (SK-MEL-5 melanoma) 1.37 µM | GI50 (KM12 colon) 0.493 µM | GI50 (ACHN renal) 2.6 µM | GI50 (SN12C renal) 2.33 µM | GI50 (SK-MEL-28 melanoma) 3.74 µM | GI50 (UO-31 renal) 2.68 µM | GI50 (HL-60(TB) leukemia) 2.46 µM | GI50 (SW-620 colon) 2.4 µM | GI50 (A549 NSCLC) 3.22 µM | GI50 (DU-145 prostate) 2.45 µM | GI50 (MDA-MB-435) 2.03 µM | GI50 (HCT-116 colon) 1.32 µM | GI50 (U251 CNS) 2.09 µM | GI50 (EKVX NSCLC) 2.41 µM | GI50 (OVCAR-3 ovarian) 1.94 µM | GI50 (A498 renal) 1.61 µM | GI50 (RXF 393 renal) 1.51 µM | GI50 (MOLT-4 leukemia) 1.89 µM | GI50 (OVCAR-8 ovarian) 2.9 µM | GI50 (BT-549 breast) 1.59 µM | GI50 (M14 melanoma) 3.05 µM | GI50 (HS 578T breast) 0.993 µM | GI50 (SF-539 CNS) 1.22 µM | GI50 (SF-268 CNS) 2.62 µM | GI50 (SK-MEL-2 melanoma) 1.77 µM | GI50 (SF-295 CNS) 3.14 µM | GI50 (SNB-19 CNS) 3.05 µM | GI50 (NCI-H522 lung) 1.56 µM
8.98 µM: TGI (HOP-92 NSCLC)
9.2 µM: TGI (RPMI-8226 leukemia)
3.57 µM: TGI (RXF 393 renal)
14.4 µM: TGI (SF-268 CNS)
11.3 µM: TGI (PC-3 prostate)
28 µM: TGI (OVCAR-8 ovarian)
37.5 µM: TGI (NCI/ADR-RES ovarian)
10.9 µM: TGI (SF-295 CNS)
16.8 µM: TGI (A549 NSCLC)
5.3 µM: TGI (BT-549 breast)
92.5 µM: TGI (HCT-116 colon)
15.9 µM: TGI (K-562 leukemia)
21 µM: TGI (COLO 205 colon)
10.4 µM: TGI (HOP-62 NSCLC) | TGI (MCF7 breast) | TGI (NCI-H522 lung)
> 100 µM: TGI (OVCAR-5 ovarian) | TGI (CAKI-1 renal) | TGI (ACHN renal) | TGI (SN12C renal) | TGI (SNB-19 CNS)
active: GI50 (SNB-75 CNS) 0.355 µM
8.37 µM: TGI (NCI-H23 lung)
46.1 µM: TGI (MDA-MB-231 breast)
35.7 µM: TGI (HCT-15 colon)
13.2 µM: TGI (OVCAR-4 ovarian)
24.3 µM: TGI (UO-31 renal)
13.4 µM: TGI (T-47D breast)
5.81 µM: TGI (UACC-62 melanoma)
6.62 µM: TGI (LOX IMVI melanoma)
3.53 µM: TGI (SNB-75 CNS)
10.8 µM: TGI (NCI-H460 lung)
11.1 µM: TGI (MDA-MB-435)
29.1 µM: TGI (DU-145 prostate)
10.5 µM: TGI (KM12 colon)
6 µM: TGI (HL-60(TB) leukemia)
12.9 µM: TGI (SK-MEL-28 melanoma)
21.1 µM: TGI (U251 CNS)
10 µM: TGI (M14 melanoma)
5.55 µM: TGI (MOLT-4 leukemia)
64.8 µM: TGI (SK-OV-3 ovarian)
5.79 µM: TGI (A498 renal)
31.6 µM: TGI (786-0 renal)
10.2 µM: TGI (CCRF-CEM leukemia)
29.6 µM: TGI (MALME-3M melanoma)
57.2 µM: TGI (TK-10 renal)
5.88 µM: TGI (HS 578T breast)
14.3 µM: TGI (SW-620 colon)
8.1 µM: TGI (HCC-2998 colon) | TGI (EKVX NSCLC)
5.04 µM: TGI (SK-MEL-5 melanoma)
